The experiment deals with serum ovine somatotropin (oST). Nature of the experiment: Serum ovine somatotropin (oST) by RIA after subcutaneous injection of GRF compounds in lambs. It counts as in vivo. On the procedure:
Whether lambs (40-45 kg) were injected subcutaneously with the following GRF compounds in a phosphate buffered saline vehicle (pH 7):
10.0 ug/kg recombinant native hGRF (rhGRF)
5.0 ug/kg synthetic native hGRF (shGRF)
5.0 ug/kg [Pro^0, Gly^15, Met^27 ]-hGRF(1-44)-NH2 (aGRF)
There were 4 animals per treatment group and each treatment was repeated 3 times to give a total of 12 samples/time point/treatment. The animals were bled at time 0, 10, 20, 30, 60 and 120 minutes after injection and analyzed for serum ovine somatotropin (oST) by radioimmunoassay (RIA).
Example 4 was repeated using the following treatments:
20.0 ug/kg recombinant native hGRF (rhGRF)
10.0 ug/kg synthetic native hGRF (shGRF)

Where [1] appears, read: 5.0 ug/kg subcutaneous, FIG. 1 (Example 4).
The mark [2] stands for this setting: 10.0 ug/kg subcutaneous, FIG. 2 (Example 5).

This note sets out measurements from patent publication US5137872A, “Growth hormone-releasing factor analogs” (Pitman-Moore, Inc., priority 1989, dated 1992).

As for `CC[C@H](C)[C@H](NC(=O)[C@H](C)NC(=O)[C@H](CC(=O)O)NC(=O)[C@H](C)NC(=O)[C@@H](N)Cc1ccc(O)cc1)C(=O)N[C@@H](Cc1ccccc1)C(=O)N[C@H](C(=O)N[C@@H](CC(N)=O)C(=O)N[C@@H](CO)C(=O)N[C@@H](Cc1ccc(O)cc1)C(=O)N[C@@H](CCCNC(=N)N)C(=O)N[C@@H](CCCCN)C(=O)N[C@H](C(=O)N[C@@H](CC(C)C)C(=O)NCC(=O)N[C@@H](CCC(N)=O)C(=O)N[C@@H](CC(C)C)C(=O)N[C@@H](CO)C(=O)N[C@@H](C)C(=O)N[C@@H](CCCNC(=N)N)C(=O)N[C@@H](CCCCN)C(=O)N[C@@H](CC(C)C)C(=O)N[C@@H](CC(C)C)C(=O)N[C@@H](CCC(N)=O)C(=O)N[C@@H](CC(=O)O)C(=O)N[C@H](C(=O)N[C@@H](CCSC)C(=O)N[C@@H](CO)C(=O)N[C@@H](CCCNC(=N)N)C(=O)N[C@@H](CCC(N)=O)C(=O)N[C@@H](CCC(N)=O)C(=O)NCC(=O)N[C@@H](CCC(=O)O)C(=O)N[C@@H](CO)C(=O)N[C@@H](CC(N)=O)C(=O)N[C@@H](CCC(N)=O)C(=O)N[C@@H](CCC(=O)O)C(=O)N[C@@H](CCCNC(=N)N)C(=O)NCC(=O)N[C@@H](C)C(=O)N[C@@H](CCCNC(=N)N)C(=O)N[C@@H](C)C(=O)N[C@@H](CCCNC(=N)N)C(=O)N[C@@H](CC(C)C)C(N)=O)[C@@H](C)CC)C(C)C)[C@@H](C)O` [native synthetic hGRF, reference compound], the “serum oST concentration at 120 minutes post injection versus time 0” value is given as “returned to baseline serum oST levels” under setting [1] and “returned to baseline serum oST levels” under setting [2].

In the case of [Pro^0, Gly^15, Met^27 ]-hGRF(1-44)-NH2, under setting [1], the “serum oST concentration at 120 minutes post injection versus time 0” value is “oST concentrations greater than those at time 0” and the “duration of in vivo biological activity” value is reported as “prolonged in vivo biological activity”. In addition, under setting [2], the “serum oST concentration at 120 minutes post injection versus time 0” value is “oST concentrations greater than those at time 0” and the “duration of in vivo bioactivity compared to native GRF” value is “prolonged in vivo bioactivity”.
